A word on the half-life: it is how long it takes for the measured level to halve.

The source of these data is patent US10940159B2, “Combination immediate/delayed release delivery system for short half-life pharmaceuticals including remogliflozin” (priority 2010, dated 2021).

For series [1] the following is noted: reduced from 9.0%; at mealtime in combination with a sulfonylurea; P<0.0001; cited from earlier work.
The nature of series [2]: 12 week clinical studies in T2DM, once daily and twice daily dosing. The class given is in vivo, human. The source says:
To date, studies have assessed the efficacy, safety and tolerability up to 12 weeks, with varying efficacy so there is a need to characterize the profile of a number of selected formulated doses over a 12-week period. […] However to minimize the time which subjects may have sub-optimal glycemic control, the double blind study medication has been limited to 12 weeks duration. In addition, criteria have been included to allow the introduction of rescue therapy after 6 weeks for those subjects who have a high FP. […] Furthermore, there is evidence that at these doses, there may also be clinically relevant weight loss, a key requirement for new T2DM therapies (20). As doses above 250 mg BID may be associated with relatively small incremental benefits on glycemia and weight loss and there is a trend for better tolerability at lower doses, future studies could have total daily doses less than 500 mg per day. […] It is believed that the primary mechanism for this isolated increase in LDL-c is due a combination of 1) hemoconcentration as a result of the diurectic effect, similar to that seen with diuretics (21, 22) and 2) SGLT2 overnight inhibition. […] Further, a combination IR/SR dose given QD in the morning may also provide meaningful benefits on glycemia and weight loss. From a safety perspective, other than small effects observed on the lipid profile and hematocrit, there was little difference in the safety profile based on the frequency of administration.

A short description of series [3]: Half-life, absorption window and permeability. The class given is in vivo. Particulars: for half-life: human.

Where two headings read alike, the source gives them in different places.

In the case of “insulin lispro: rapid-acting insulin analog”, in series [1], the A1C levels is given as 7.1%.

`Cc1c(Cc2ccc(OC(C)C)cc2)c(O[C@@H]2O[C@H](CO)[C@@H](O)[C@H](O)[C@H]2O)nn1C(C)C` [remogliflozin]: the LDL-c entry in series [2] (250 mg and 500 mg bid doses) was “significant increases”; in series [2] (higher QD doses) it was “no corresponding increases”. Further, the “hematocrit (surrogate marker for hemoconcentration)” value in series [2] (higher QD doses) is recorded as “increases in hematocrit”. The hypoglycemic events entry in series [2] (human, in vivo) is “very little evidence”. The half-life is 1.5 to 2 h in series [3] (in vivo, read-out: half-life) and 1.5 h in series [3] (plasma, read-out: half-life (t½) (converted)). Also, the “permeability in the lower portion of the gastrointestinal tract” value in series [3] (in vivo) is listed as “poor permeability”. In addition, the window of absorption in series [3] (upper gastrointestinal tract, depending upon food intake, individual differences) was 3 to 6 h.

In the case of `CCOC(=O)OC[C@H]1O[C@@H](Oc2nn(C(C)C)c(C)c2Cc2ccc(OC(C)C)cc2)[C@H](O)[C@@H](O)[C@@H]1O` [remogliflozin etabonate, 5-methyl-4-[4-(1-methylethoxy)benzyl]-1-(1-methylethyl)-1H-pyrazol-3-yl 6-O-(ethoxycarbonyl)-β-D-glucopyranoside], the half-life in series [3] (in vivo, read-out: half-life (t½) (converted)) was 1.5 h. The “permeability in the lower portion of the gastrointestinal tract” value in series [3] (in vivo) is given as “intrinsically poor permeability”.
